Some test systems named below: A498; CCRF-CEM; HOP-92; KM12; MCF7; MDA-MB-435; MOLT-4; Malme-3M; NCI-H23; NCI-H522; OVCAR-4; SK-MEL-28; SR; TK-10; U-251; ACHN; LOX IMVI; OVCAR-5; HCC 2998; SK-MEL-2.
Holding throughout (assay): NCI anticancer screen, dose series, 48 h

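Values below derive from 48-hour exposures of cells grown in 96-well plates, with endpoints linearly interpolated between the two concentrations bracketing the appropriate inhibition level. GI50: concentration for 50% inhibition of growth.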 Calls of active or inactive are those of the source. No stated cut-off is given here; in the data, active = GI50 up to about 1.1 µM and inactive = higher.

As to `CC(C)(C)OC(=O)N1CCc2[nH][nH]c(=O)c2C1`, the GI50 in the assay with A498, in the assay on CCRF-CEM, in the assay with HOP-92, with KM12, in the assay on MCF7 and with MDA-MB-435 was > 100 µM (inactive) each time. Also, the GI50 in the assay on MOLT-4, in the assay on Malme-3M, in the assay with NCI-H23, with NCI-H522, with OVCAR-4 and in the assay on SK-MEL-28 was > 100 µM (inactive) throughout. Also, the GI50 with SR, in the assay with TK-10 and in the assay on U-251 was > 100 µM (inactive) in each case.

For `Cc1ccc(C2=C(Cl)C(=O)C(c3ccc(C)cc3)=C(Cl)C2=O)cc1`, the GI50 with A498 was > 100 µM (inactive); with ACHN it was > 100 µM (inactive); with CCRF-CEM, 83.4 µM (inactive); in the assay with HOP-92, > 100 µM (inactive); in the assay on KM12, > 100 µM (inactive); in the assay with LOX IMVI it was > 100 µM (inactive). Further, the GI50 with MCF7, in the assay on MDA-MB-435, in the assay on MOLT-4, in the assay on Malme-3M, in the assay on NCI-H23 and in the assay on NCI-H522 was > 100 µM (inactive) in each case. Also, the GI50 in the assay on OVCAR-4, in the assay with OVCAR-5, in the assay on SK-MEL-28, in the assay with SR, in the assay with TK-10 and in the assay on U-251 was > 100 µM (inactive) each time.

Take `COC(=O)[C@@H]1N2C(=S)N(c3ccccc3)C(=O)[C@H]2SC1(C)C`: the GI50 is 91.4 µM (inactive) with A498; > 100 µM (inactive) with ACHN; > 100 µM (inactive) in the assay on HCC 2998; 55.6 µM (inactive) in the assay on HOP-92; > 100 µM (inactive) in the assay with KM12; > 100 µM (inactive) in the assay on MCF7. For the same compound, the GI50 in the assay with MDA-MB-435, with MOLT-4, in the assay with NCI-H23, in the assay on NCI-H522, in the assay with OVCAR-4 and in the assay on OVCAR-5 was > 100 µM (inactive) each time. In addition, the GI50 in the assay on SK-MEL-28 was > 100 µM (inactive); in the assay on SK-MEL-2 it was > 100 µM (inactive); in the assay on SR it was 65.6 µM (inactive); with TK-10 it was > 100 µM (inactive); with U-251 it was > 100 µM (inactive).

On to `CN(C)c1ccc(C=C2C(=O)N(c3ccccc3)N(c3ccccc3)C2=O)cc1`, for which the GI50 with A498 was > 100 µM (inactive); in the assay on ACHN, 81.8 µM (inactive); with HOP-92 it was 15.6 µM (inactive); in the assay with KM12, 74.8 µM (inactive); in the assay on LOX IMVI, 76.6 µM (inactive); with MCF7, > 100 µM (inactive). The GI50 in the assay with MDA-MB-435 was 81.1 µM (inactive); in the assay with MOLT-4, 65.6 µM (inactive); in the assay with Malme-3M it was > 100 µM (inactive); in the assay with NCI-H23 it was > 100 µM (inactive); with NCI-H522, > 100 µM (inactive); in the assay on OVCAR-5 it was > 100 µM (inactive). For the same compound, the GI50 in the assay on SK-MEL-28 is > 100 µM (inactive); with SK-MEL-2, > 100 µM (inactive); in the assay on SR, > 100 µM (inactive); in the assay with TK-10, > 100 µM (inactive); in the assay with U-251 it was 37 µM (inactive).

Turning to `Cc1cn(C2CC(COCc3ccccc3)N(CCO[Si](C)(C)C(C)(C)C)O2)c(=O)[nH]c1=O` (stereo not given), the GI50 with A498 is 15.2 µM (inactive); in the assay on ACHN it was 14.9 µM (inactive); in the assay with HOP-92 it was 8.81 µM (inactive); in the assay on KM12, 17.3 µM (inactive); with MCF7 it was 18.5 µM (inactive); in the assay with MDA-MB-435 it was 13 µM (inactive). Besides, the GI50 in the assay on MOLT-4 was 5.93 µM (inactive); with Malme-3M, 18.2 µM (inactive); in the assay on NCI-H23 it was 16.2 µM (inactive); in the assay on NCI-H522, 16.2 µM (inactive); in the assay on OVCAR-4, 17.9 µM (inactive); with OVCAR-5 it was 17.7 µM (inactive). Also, the GI50 with SK-MEL-28 is 16.8 µM (inactive); with SK-MEL-2, 16.4 µM (inactive); in the assay with SR it was 35.1 µM (inactive); in the assay with TK-10, 14.3 µM (inactive); in the assay on U-251 it was 19.2 µM (inactive).

Consider `Cc1nnc([C@@]2(C)CC[C@H]3[C@@H](CCC4=CC(=O)CC[C@@]43C)[C@@H]2CC#N)o1`, for which the GI50 with A498, in the assay on ACHN, in the assay on CCRF-CEM, in the assay on HOP-92, in the assay with KM12 and with LOX IMVI was > 100 µM (inactive) throughout. The GI50 with MCF7, in the assay with MDA-MB-435, with MOLT-4, in the assay on Malme-3M, in the assay on NCI-H23 and in the assay with NCI-H522 was > 100 µM (inactive) each time. Besides, the GI50 in the assay with OVCAR-4, in the assay with OVCAR-5, in the assay with SK-MEL-2, in the assay with SR, in the assay with TK-10 and in the assay on U-251 was > 100 µM (inactive) throughout.

In the case of `C=C(C)C1CCC2(C)C1CCC1(C)C2CCC2C3(C)C4OC(OC4=O)C(C)(C)C3CCC21C` (stereo not given), the GI50 was > 100 µM (inactive) with A498; > 100 µM (inactive) in the assay with ACHN; 80.4 µM (inactive) with CCRF-CEM; > 100 µM (inactive) with HCC 2998; > 100 µM (inactive) in the assay on HOP-92; > 100 µM (inactive) with KM12. Besides, the GI50 in the assay with LOX IMVI was > 100 µM (inactive); in the assay with MCF7, > 100 µM (inactive); with MDA-MB-435, > 100 µM (inactive); with MOLT-4 it was > 100 µM (inactive); in the assay with NCI-H23 it was > 100 µM (inactive); in the assay on NCI-H522, 14.6 µM (inactive). Besides, the GI50 with OVCAR-5, in the assay on SK-MEL-28, with SK-MEL-2, in the assay with SR, in the assay on TK-10 and in the assay with U-251 was > 100 µM (inactive) each time.

As to `O=C1/C(=C/c2cccnc2)SC(=S)N1Cc1ccco1`, the GI50 is 24.7 µM (inactive) in the assay with A498; 10.7 µM (inactive) in the assay on ACHN; 3.21 µM (inactive) in the assay with CCRF-CEM; 5.32 µM (inactive) in the assay with HOP-92; 3.13 µM (inactive) with KM12; 4.16 µM (inactive) in the assay on LOX IMVI. Besides, the GI50 was 3.28 µM (inactive) in the assay with MCF7; 2.15 µM (inactive) in the assay with MDA-MB-435; 3.08 µM (inactive) in the assay with MOLT-4; 6.73 µM (inactive) with Malme-3M; 4.72 µM (inactive) in the assay with NCI-H23; 1.43 µM (inactive) with NCI-H522. For the same compound, the GI50 was 8.81 µM (inactive) with OVCAR-4; 36.1 µM (inactive) in the assay with OVCAR-5; 31 µM (inactive) in the assay on SK-MEL-28; 8.87 µM (inactive) in the assay with SK-MEL-2; 1.44 µM (inactive) with SR; 2.34 µM (inactive) in the assay on TK-10. For the same compound, the GI50 in the assay on U-251 is 4.37 µM (inactive).

In the case of `CC1(C)N=C(N)N=C(N)N1c1cccc(OCCOc2ccc([N+](=O)[O-])cc2)c1`, the GI50 in the assay with A498 was > 100 µM (inactive); in the assay on ACHN it was > 100 µM (inactive); in the assay with CCRF-CEM it was 7.76 µM (inactive); in the assay on HOP-92, > 100 µM (inactive); with KM12, 11.5 µM (inactive); in the assay with LOX IMVI, 8.97 µM (inactive). The GI50 with MCF7 is 16 µM (inactive); in the assay on MDA-MB-435, 5.04 µM (inactive); in the assay on MOLT-4, > 100 µM (inactive); in the assay with Malme-3M, 20.6 µM (inactive); in the assay on NCI-H23 it was 4.9 µM (inactive); in the assay with NCI-H522, 3.79 µM (inactive). Moreover, the GI50 in the assay with OVCAR-4 is 63.5 µM (inactive); in the assay with OVCAR-5 it was > 100 µM (inactive); in the assay with SK-MEL-28, 53.3 µM (inactive); with SK-MEL-2 it was 8.26 µM (inactive); with SR it was 0.238 µM (active); in the assay with TK-10, > 100 µM (inactive). In addition, the GI50 in the assay on U-251 is 7.33 µM (inactive).

Regarding `COC(=O)c1cc(NC(=O)Cc2c[nH]c3ccccc23)cn1C`, the GI50 in the assay with A498 is > 100 µM (inactive); with ACHN, 72.4 µM (inactive); in the assay with CCRF-CEM, 45.3 µM (inactive); in the assay on HCC 2998, 68.1 µM (inactive); in the assay with KM12, > 100 µM (inactive); in the assay with LOX IMVI, 58.3 µM (inactive). The GI50 with MCF7 was 60.8 µM (inactive); with MDA-MB-435, 55.8 µM (inactive); in the assay on MOLT-4, 43.2 µM (inactive); in the assay on Malme-3M, 57.7 µM (inactive); with NCI-H23, > 100 µM (inactive); in the assay with NCI-H522, 36.1 µM (inactive). Besides, the GI50 was 40.4 µM (inactive) in the assay with OVCAR-4; > 100 µM (inactive) in the assay on OVCAR-5; 42 µM (inactive) with SK-MEL-28; 81.7 µM (inactive) with SK-MEL-2; 39.4 µM (inactive) in the assay on SR; 87.9 µM (inactive) with TK-10. The GI50 in the assay on U-251 is 68.4 µM (inactive).

`Cc1cs/c(=N\C(P(=O)(O)O)P(=O)(O)O)n1C`: the GI50 in the assay with A498 was > 100 µM (inactive); in the assay with ACHN, > 100 µM (inactive); in the assay with CCRF-CEM, > 100 µM (inactive); in the assay on HCC 2998, > 100 µM (inactive); with HOP-92 it was 42.9 µM (inactive); in the assay on KM12, > 100 µM (inactive). The GI50 with LOX IMVI, in the assay with MCF7, in the assay on MDA-MB-435, in the assay with MOLT-4, in the assay on Malme-3M and in the assay with NCI-H23 was > 100 µM (inactive) throughout. In addition, the GI50 with NCI-H522, in the assay on OVCAR-5, in the assay on SK-MEL-28, in the assay with SR, with TK-10 and in the assay with U-251 was > 100 µM (inactive) throughout.

For the origin of these results see ChEMBL document CHEMBL1201862, “PubChem BioAssay data set” (2004).
